The target of data set [1] is NACHT, LRR and PYD domains-containing protein 3 (Mus musculus) (UniProt Q8R4B8). Put plainly: Inhibition of NLRP3 inflammasome activation in LPS/alum-induced C57BL/6 mouse BMDMs at 200 nM preincubated with LPS for 18 hrs followed by compound addition for 30 mins and further stimulated with alum for 8 hrs by ELISA. The format is cell-based. As to conditions: BMDM, time 8.5 hrs. On the technique in general: ELISA stands for enzyme-linked immunosorbent assay.

Another data set has as its system Mus musculus. The experiment in a line: Antiinflammatory activity in C57BL/6 mouse model of arthritis assessed as reduction in MSU-induced joint swelling at 12.5 to 25 mg/kg, iv measured upto 24 hrs. The data set is classed as functional, organism-based. Particulars: dose 12.5-25 mg/kg.
In data set [2] the target is NACHT, LRR and PYD domains-containing protein 3 (Mus musculus, UniProt Q8R4B8). The experiment in a line: Inhibition of NLRP3 inflammasome activation in LPS/ATP-induced C57BL/6 mouse BMDMs assessed as reduction in IL-1beta secretion preincubated with LPS for 4 hrs followed by compound addition for 30 mins and further stimulated with ATP for 30 mins by ELISA. The data set is classed as cell-based, BMDM.
Chain of NACHT, LRR and PYD domains-containing protein 3 (Q8R4B8 whole entry, the tested form may be a part): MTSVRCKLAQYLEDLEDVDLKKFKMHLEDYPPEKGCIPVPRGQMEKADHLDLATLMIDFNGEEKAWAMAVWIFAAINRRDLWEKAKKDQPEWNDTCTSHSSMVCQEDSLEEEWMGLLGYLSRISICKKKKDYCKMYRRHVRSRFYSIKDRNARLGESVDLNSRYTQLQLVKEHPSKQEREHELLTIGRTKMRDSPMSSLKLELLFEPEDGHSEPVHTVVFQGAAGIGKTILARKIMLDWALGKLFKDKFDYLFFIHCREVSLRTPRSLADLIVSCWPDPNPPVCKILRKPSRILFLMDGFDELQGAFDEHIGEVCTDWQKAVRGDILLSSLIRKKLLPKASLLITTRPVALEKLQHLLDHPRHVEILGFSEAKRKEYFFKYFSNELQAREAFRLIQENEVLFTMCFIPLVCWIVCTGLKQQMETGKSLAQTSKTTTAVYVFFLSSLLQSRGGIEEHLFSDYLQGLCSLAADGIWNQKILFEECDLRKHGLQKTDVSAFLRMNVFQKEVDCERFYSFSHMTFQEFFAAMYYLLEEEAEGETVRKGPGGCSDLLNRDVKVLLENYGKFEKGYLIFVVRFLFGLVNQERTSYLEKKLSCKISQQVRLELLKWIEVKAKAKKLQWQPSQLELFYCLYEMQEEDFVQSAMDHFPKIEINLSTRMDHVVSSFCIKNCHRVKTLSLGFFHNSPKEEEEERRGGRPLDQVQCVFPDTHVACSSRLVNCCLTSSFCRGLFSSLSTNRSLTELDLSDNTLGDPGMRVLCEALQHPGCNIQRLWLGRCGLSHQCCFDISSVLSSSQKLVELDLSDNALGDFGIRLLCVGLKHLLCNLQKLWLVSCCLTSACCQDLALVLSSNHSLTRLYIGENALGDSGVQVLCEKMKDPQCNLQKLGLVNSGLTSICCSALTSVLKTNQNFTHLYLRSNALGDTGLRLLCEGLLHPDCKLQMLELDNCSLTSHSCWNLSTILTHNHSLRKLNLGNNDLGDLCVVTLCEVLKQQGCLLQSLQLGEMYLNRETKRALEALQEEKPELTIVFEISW

Data set [3] addresses NACHT, LRR and PYD domains-containing protein 3 (Mus musculus) (UniProt Q8R4B8). Put plainly: Inhibition of NLRP3 inflammasome activation in LPS/ATP-induced C57BL/6 mouse BMDMs assessed as inhibition of ASC oligomerization by measuring reduction in NLRP3 expression at 50 to 200 nM preincubated with LPS for 4 hrs followed by compound addition for 30 mins and further stimulated with ATP for 30 mins by Western blotting analysis. The format is cell-based. Particulars: BMDM, dose 50-200 nM, time 1.0 hrs.

In another data set the target is hERG (KCNH2) (Homo sapiens, UniProt Q12809). The experiment in a line: Inhibition of human ERG expressed in CHO cells at 40 uM relative to control. The data set is classed as toxicity, cell-based. Particulars: CHO cells that express human ERG.
Chain of hERG (KCNH2) (Q12809 whole entry): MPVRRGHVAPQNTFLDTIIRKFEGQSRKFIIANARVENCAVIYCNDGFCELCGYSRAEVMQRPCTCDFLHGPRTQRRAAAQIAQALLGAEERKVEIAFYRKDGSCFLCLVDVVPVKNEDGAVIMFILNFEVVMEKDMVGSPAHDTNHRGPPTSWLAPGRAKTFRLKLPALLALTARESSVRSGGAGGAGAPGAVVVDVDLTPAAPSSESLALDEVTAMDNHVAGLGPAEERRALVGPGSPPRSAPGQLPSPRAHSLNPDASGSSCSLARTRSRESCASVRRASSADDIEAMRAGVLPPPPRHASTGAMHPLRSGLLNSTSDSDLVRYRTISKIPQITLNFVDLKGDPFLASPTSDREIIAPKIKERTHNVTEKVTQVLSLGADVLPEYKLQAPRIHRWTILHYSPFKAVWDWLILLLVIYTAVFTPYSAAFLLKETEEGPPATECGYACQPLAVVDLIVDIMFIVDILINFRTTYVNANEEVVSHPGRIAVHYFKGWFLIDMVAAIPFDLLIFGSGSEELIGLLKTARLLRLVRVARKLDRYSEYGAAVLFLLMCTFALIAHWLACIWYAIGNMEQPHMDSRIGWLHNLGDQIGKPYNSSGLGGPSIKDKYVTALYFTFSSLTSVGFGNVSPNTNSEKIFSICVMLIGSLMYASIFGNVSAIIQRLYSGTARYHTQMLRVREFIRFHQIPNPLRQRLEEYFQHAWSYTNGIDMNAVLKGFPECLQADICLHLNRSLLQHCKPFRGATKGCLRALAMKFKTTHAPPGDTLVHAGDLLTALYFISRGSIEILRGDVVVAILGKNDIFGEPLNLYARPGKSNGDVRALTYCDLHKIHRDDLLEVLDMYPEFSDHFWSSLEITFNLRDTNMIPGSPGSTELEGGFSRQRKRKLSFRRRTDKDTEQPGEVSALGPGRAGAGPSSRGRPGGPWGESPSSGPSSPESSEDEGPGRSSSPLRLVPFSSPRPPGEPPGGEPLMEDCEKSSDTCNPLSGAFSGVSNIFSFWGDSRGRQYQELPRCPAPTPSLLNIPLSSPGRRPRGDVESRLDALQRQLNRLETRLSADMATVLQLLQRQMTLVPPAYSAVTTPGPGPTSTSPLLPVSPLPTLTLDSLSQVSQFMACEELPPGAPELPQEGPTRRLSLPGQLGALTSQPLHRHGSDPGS

The structures appear in SMILES notation. Calls of active or inactive are those of the source. The rule behind the calls is not given here.

Chain of NACHT, LRR and PYD domains-containing protein 3 (Mus musculus) (Q8R4B8 whole entry, the tested form may be a part): as the sequence (Q8R4B8 whole entry, the tested form may be a part) above

The inhibition is how much of the control response was suppressed. One may read the IC50 as the concentration that inhibits the measured activity by half. Turning to `C=C1C(=O)[C@]23[C@H](O)[C@H]1CC[C@H]2[C@]12C=CCC(C)(C)[C@H]1[C@H](O)[C@@]3(OCCC(=O)O)OC2`, the inhibition result in data set [1] was “Active”. Further, in the data set with Mus musculus, the result was Active. Further, the IC50 in data set [2] was 77.2 nM. Also, the inhibition result in data set [3] is “inactive”. On hERG (KCNH2), this molecule gave an inhibition at 40 µM of 22%.

(Values after ChEMBL document CHEMBL5506055, “Hit-to-Lead Optimization of the Natural Product Oridonin as Novel NLRP3 Inflammasome Inhibitors with Potent Anti-Inflammation Activity” (J Med Chem, 2024).)
